# Columns and labels:
# Type in all cases: functional
# Staphylococcus aureus [1] = test: Antibacterial activity against methicillin-sensitive Staphylococcus aureus after 16 hrs by agar dilution method
# Streptococcus pneumoniae = test: Antibacterial activity against penicillin-resistant Streptococcus pneumoniae after 16 hrs by agar dilution method
# [2] = system: Staphylococcus epidermidis; test: Antibacterial activity against methicillin-sensitive Staphylococcus epidermidis after 16 hrs by agar dilution method
# [3] = system: Staphylococcus epidermidis; test: Antibacterial activity against methicillin-resistant Staphylococcus epidermidis after 16 hrs by agar dilution method
# Staphylococcus aureus [4] = test: Antibacterial activity against methicillin-resistant Staphylococcus aureus after 16 hrs by agar dilution method
# Staphylococcus aureus [5] = test: Antibacterial activity against Staphylococcus aureus […] after 16 hrs by agar dilution method
SMILES,MIC (Staphylococcus aureus [1]) [µg/mL],MIC (Streptococcus pneumoniae) [µg/mL],MIC [2] [µg/mL],MIC [3] [µg/mL],MIC (Staphylococcus aureus [4]) [µg/mL],MIC (Staphylococcus aureus [5]) [µg/mL]
C=C[C@]1(C)C[C@@H](OC(=O)CSc2cncc(NC(=O)CN3CC[C@H](O)C3)c2)[C@]2(C)[C@H](C)CC[C@]3(CCC(=O)[C@H]32)[C@@H](C)[C@@H]1O,0.125,0.125,0.125,0.125,0.125,0.125
C=C[C@]1(C)C[C@@H](OC(=O)CS[C@@H]2C[C@H]3CC[C@@H](C2)N3C)[C@]2(C)[C@H](C)CC[C@]3(CCC(=O)[C@H]32)[C@@H](C)[C@@H]1O [RETAPAMULIN],0.063,0.063,0.063,0.063,0.063,0.125
C=C[C@]1(C)C[C@@H](OC(=O)CSc2cnccn2)[C@]2(C)[C@H](C)CC[C@]3(CCC(=O)[C@H]32)[C@@H](C)[C@@H]1O,0.125,0.125,0.125,0.125,0.125,0.25
C=C[C@]1(C)C[C@@H](OC(=O)CSc2ccnc(N)c2)[C@]2(C)[C@H](C)CC[C@]3(CCC(=O)[C@H]32)[C@@H](C)[C@@H]1O,0.063,0.063,0.063,0.063,0.063,0.063
C=C[C@]1(C)C[C@@H](OC(=O)CSc2cncc(/C=N/O)c2)[C@]2(C)[C@H](C)CC[C@]3(CCC(=O)[C@H]32)[C@@H](C)[C@@H]1O,0.063,0.063,0.063,0.063,0.063,0.063
C=C[C@]1(C)C[C@@H](OC(=O)CSc2cncc(NC(=O)[C@H]3CCCCN3)c2)[C@]2(C)[C@H](C)CC[C@]3(CCC(=O)[C@H]32)[C@@H](C)[C@@H]1O,0.063,0.125,0.031,0.125,0.125,0.125
C=C[C@]1(C)C[C@@H](OC(=O)CSc2cncc(NC(=O)CN3CCCC3)c2)[C@]2(C)[C@H](C)CC[C@]3(CCC(=O)[C@H]32)[C@@H](C)[C@@H]1O,0.125,0.031,0.031,0.125,0.125,0.125
C=C[C@]1(C)C[C@@H](OC(=O)CSc2ccc(N)nc2)[C@]2(C)[C@H](C)CC[C@]3(CCC(=O)[C@H]32)[C@@H](C)[C@@H]1O,0.125,0.063,0.5,0.063,0.063,0.125
C=C[C@]1(C)C[C@@H](OC(=O)CSc2ncccc2N)[C@]2(C)[C@H](C)CC[C@]3(CCC(=O)[C@H]32)[C@@H](C)[C@@H]1O,0.25,0.25,0.125,0.125,0.25,0.5
C=C[C@]1(C)C[C@@H](OC(=O)CSc2cc(CO)ccn2)[C@]2(C)[C@H](C)CC[C@]3(CCC(=O)[C@H]32)[C@@H](C)[C@@H]1O,0.125,0.125,0.125,0.125,0.125,0.125
C=C[C@]1(C)C[C@@H](OC(=O)CSc2cc(/C=N/N)ccn2)[C@]2(C)[C@H](C)CC[C@]3(CCC(=O)[C@H]32)[C@@H](C)[C@@H]1O,0.5,0.5,0.5,0.5,0.5,0.5
C=C[C@]1(C)C[C@@H](OC(=O)CSc2ccc(CO)nc2)[C@]2(C)[C@H](C)CC[C@]3(CCC(=O)[C@H]32)[C@@H](C)[C@@H]1O,0.063,0.063,0.25,0.031,0.031,0.5
C=C[C@]1(C)C[C@@H](OC(=O)CSc2ncccc2CO)[C@]2(C)[C@H](C)CC[C@]3(CCC(=O)[C@H]32)[C@@H](C)[C@@H]1O,0.125,0.125,0.063,0.125,0.125,0.125
C=C[C@]1(C)C[C@@H](OC(=O)CSc2ncccc2C#N)[C@]2(C)[C@H](C)CC[C@]3(CCC(=O)[C@H]32)[C@@H](C)[C@@H]1O,0.5,0.5,0.5,0.5,0.5,1
C=C[C@]1(C)C[C@@H](OC(=O)CSc2cc(/C=N/O)ccn2)[C@]2(C)[C@H](C)CC[C@]3(CCC(=O)[C@H]32)[C@@H](C)[C@@H]1O,0.063,0.25,0.063,0.125,0.125,0.125
C=C[C@]1(C)C[C@@H](OC(=O)CSc2cncc(NC(=O)CNCCO)c2)[C@]2(C)[C@H](C)CC[C@]3(CCC(=O)[C@H]32)[C@@H](C)[C@@H]1O,0.125,0.063,0.125,0.25,0.25,0.125
